The structures appear in SMILES notation.

The subject of this experiment is Eμ-Myc lymphoma cells. Put plainly: In vivo tumour burden from a single dose, Eμ-Myc lymphoma. Details: species or system mouse. How it is done: B6.SJL-PtprcPepc/BoyJ (B6.CD45.1) mice were inoculated via tail vein injection with 5×10^5 Eμ-Myc lymphoma cells and left untreated for 12-14 days. A single injection of Cpd 010 at 35-45 mg/kg, or vehicle control (30% HPBCD) was administered. Half of the mice (n=6) were harvested 6 h post injection while the other half (n=6) were harvested 16 h later. Assessment of tumour burden was carried out on single cell suspension of harvested lymph nodes, spleen and blood by flow cytometry using antibodies as above. PD-L1 MFI was assessed by flow cytometry in harvested LNs using anti-mouse PD-L1-PE (ThermoFisher Scientific, clone MIH5) or isotype control antibodies (Mouse IgG2b PE, #559529). Harvested LNs were also washed in PBS and lysates were collected using Laemmli Buffer (AlfaAeser #J61337). They were processed as per our Western Blot protocol (see above) before they were probed for primary pAKT antibodies. Spleen size and weights were also measured between the treatment groups.

Take `CC(=O)N1c2ccc(-c3ccc(CNC(=O)c4cn5cc(-c6cnc(N)nc6)nc(N6CCOCC6)c5n4)cc3)cc2CC[C@@H]1C` [Cpd 010, (S)-N-(4-(1-acetyl-2-methyl-1,2,3,4-tetrahydroquinolin-6-yl)benzyl)-6-(2-aminopyrimidin-5-yl)-8-morpholinoimidazo[1,2-a]pyrazine-2-carboxamide]: where the note is “single dose 35-45 mg/kg”, the “size of the spleen” value is on record as “significantly reduced”. The “number of tumour cells in peripheral blood and harvested spleen” value (single injection 35-45 mg/kg, 16 h) was “marked reduction in number of tumour cells in peripheral blood and harvested spleen”.
